# Test results published in patent publication US20240139136A1, “METHODS AND FORMULATIONS FOR TOPICAL ADMINISTRATION OF GABAPENTINOIDS” (VYLUMA INC., priority 2021, published 2024).
# Test system: rats with post-surgical corneal injuries
# Assay: Capsaicin-induced ipsilateral paw (eye) wipes in rats with post-surgical corneal injury
# Assay type: in vivo
# Details: 3% ophthalmic formulation, topical; challenge with 40 μL 0.1% capsaicin 15 minutes after administration; compared with capsaicin-alone baseline; FIG. 1
# Method: Test ophthalmic formulations were administered to rats with post-surgical corneal injuries to test the efficacy of the formulations in treating corneal pain. A negative control was established by treating all animals with artificial tears (AT) and counting ipsilateral paw wipes for 60 seconds (FIG. 1, Baseline (Pre-induction)). 20 minutes later, a positive control was established by treating all animals with 40 μL 0.1% capsaicin and counting ipsilateral paw wipes for 60 seconds (FIG. 1, Baseline). Eyes were then flushed with balanced salt solution (BSS) and AT. 20 minutes later, all animals were treated with the test ophthalmic formulation (0.5% proparacaine (positive control), 3% nalbuphine, 3% pregabalin, or 3% ketamine). 15 minutes later, all animals were treated with 40 μL 0.1% capsaicin, and ipsilateral paw wipes were counted for 60 seconds (FIG. 1, 15 Minutes).
row,Compound,eye wipes (ipsilateral paw wipes counted for 60 seconds)
1,Oc1ccc2c3c1O[C@H]1[C@@H](O)CC[C@@]4(O)[C@@H](C2)N(CC2CCC2)CC[C@]314 [nalbuphine],significant decrease
2,CC(C)C[C@H](CN)CC(=O)O [pregabalin],significant decrease
3,CNC1(c2ccccc2Cl)CCCCC1=O (stereo not drawn) [ketamine],borderline response
